Results from patent US11873354B2, “Photobase generator, compound, photoreactive composition, and reaction product” (Tokyo University of Science Foundation, priority 2019, dated 2024).
“Also recorded” adds a separate entry of the source.

Key:
Type in all cases: physicochemical
[1] = pH test paper after irradiation of aqueous solution; conditions: 365 nm
[2] = Color reaction experiment of phenol red (basicity, UV-Vis); conditions: for peak showing basicity near 570 nm: methanol solution with phenol red, UV-Vis
Procedure: Next, it was confirmed that 2-methyl-2-imidazoline (2MI), which is generated by light irradiation to the compound (1)-2, is a stronger base than cyclohexylamine (CyA), which is an aliphatic amine, by a color reaction experiment of phenol red. First, 2MI, CyA and diazabicycloundecene (DBU) were prepared as bases, and 1.5 mL of methanol solution, in which the concentration was prepared at 2.0×10^−5 mol/L, was added to 1.5 mL of a methanol solution in which each base was dissolved. The basicity of each base was evaluated by measuring the UV-Vis spectrum of each of the solution.

[3] = Absorbance of compound in methanol under light irradiation (Test Examples 1, 2, 7, 8); conditions: methanol solution; for molar absorption coefficient ε313: 313 nm; for molar absorption coefficient ε365: 365 nm
Procedure: The above-obtained compound (1)-1 was dissolved in methanol so as to have a concentration of 2.5×10^−5 mol/L. Then, using an LED lamp, the illuminance was set to 50 mW/cm^2, the exposure dose was set to 0, 50, 150 or 300 mJ/cm^2, and the obtained methanol solution was irradiated with light having a wavelength of 365 nm. Then, the absorbance of the compound (1)-1 was measured.
The above-obtained compound (1)-1 was dissolved in methanol so as to have a concentration of 2.5×10^−5 mol/L. Then, using a mercury xenon lamp, the illuminance was set to 50 mW/cm^2, the exposure dose was set to 0, 50, 100 or 280 mJ/cm^2, and the obtained methanol solution was irradiated with light having a wavelength of 313 nm. Then, the absorbance of the compound (1)-1 was measured.
The above-obtained compound (1)-3 was dissolved in methanol so as to have a concentration of 1.5×10^−5 mol/L. Then, using an LED lamp, the illuminance was set to 50 mW/cm^2, the exposure dose was set to 0, 50, 100, 200 or 350 mJ/cm^2, and the obtained methanol solution was irradiated with light having a wavelength of 365 nm. Then, the absorbance of the compound (1)-3 was measured. In Test Example 7, the molar absorption coefficient was ε365=1.2×10^4 L/(mol cm).
The above-obtained compound (1)-3 was dissolved in methanol so as to have a concentration of 1.5×10^−5 mol/L. Then, using a mercury xenon lamp, the illuminance was set to 10 mW/cm^2, the exposure dose was set to 0, 50, 100, 200 or 350 mJ/cm^2, and the obtained methanol solution was irradiated with light having a wavelength of 313 nm. Then, the absorbance of the compound (1)-3 was measured. In Test Example 8, the molar absorption coefficient was ε313=2.8×10^4 L/(mol cm).

[4] = Preservation stability of liquid mixture with base-reactive compound (9)-301 (Test Examples 3, 4); conditions: with (9)-301 in methanol, dark place, 25° C., 6 days
Procedure: A base-reactive compound (9)-301 (0.10 g) as shown below, the compound (1)-1 (0.012 g, 8 molar % with respect to the methoxy group in the base-reactive compound), and methanol (0.51 g) were added in a glass bottle to prepare a liquid mixture.
The liquid mixture was stored in a dark place at 25° C. for 6 days. After storage for 6 days, the glass bottle was shaken or inverted to confirm that the liquid mixture in the glass bottle was liquid.
The base-reactive compound (9)-301 (0.10 g), the compound (2)-1 (0.013 g, 8 molar % with respect to the methoxy group in the base-reactive compound), and methanol (0.50 g) were added in a glass bottle to prepare a liquid mixture.
The liquid mixture was stored in a dark place at 25° C. for 4 days. After storage for 4 days, the glass bottle was shaken or inverted to confirm that the liquid mixture in the glass bottle was gelled.

Solubility test = conditions: chloroform, dimethyl sulfoxide and the like; compared with compound (1)-2

SMILES	peak showing basicity near 570 nm [2]	molar absorption coefficient ε313 [3]	molar absorption coefficient ε365 [3]	other results
CC1=NCCN1C(=O)/C=C/c1ccccc1O [Compound (1)-2]	–	–	–	pH test paper after light irradiation [1]: discolored to the basic side
C1CCC2=NCCCN2CC1 [DBU, diazabicycloundecene]	a peak showing basicity appeared near 570 nm	–	–	–
NC1CCCCC1 [CyA, cyclohexylamine]	no peak showing basicity appeared near 570 nm	–	–	–
CC1=NCCN1 [Compound 2MI, 2-methyl-2-imidazoline]	a peak showing basicity appeared near 570 nm	–	–	relative basicity ([2]; from peak intensity near 570 nm): weaker than that of DBU; also recorded: stronger than that of CyA
CN(C)C(=NC(=O)/C=C/c1ccccc1O)N(C)C [Compound (1)-1]	–	16000 L/mol/cm	3100 L/mol/cm	state of liquid mixture after storage [4]: liquid
CC1=NCCN1C(=O)/C=C/c1cc(C(C)(C)C)cc(C(C)(C)C)c1O [Compound (1)-3]	–	28000 L/mol/cm	12000 L/mol/cm	solubility (Solubility test): improved in solubility
